According to patent US9790218B2, “Small molecule activators of calcium-activated chloride channels and methods of use” (The Regents of the University of California, priority 2011, dated 2017):
Several values for one entry are separate records, joined by “and”; a condition that tells them apart may be missing. Equal values may be shown once.

Target: T1, TMEM16A (Homo sapiens, UniProt Q5XXA6, DEL476-501)
T1 construct: expressed in transfected cells
T1 sequence (Q5XXA6 with tags, fused parts or gaps isoform Q5XXA6-5 DEL539-564): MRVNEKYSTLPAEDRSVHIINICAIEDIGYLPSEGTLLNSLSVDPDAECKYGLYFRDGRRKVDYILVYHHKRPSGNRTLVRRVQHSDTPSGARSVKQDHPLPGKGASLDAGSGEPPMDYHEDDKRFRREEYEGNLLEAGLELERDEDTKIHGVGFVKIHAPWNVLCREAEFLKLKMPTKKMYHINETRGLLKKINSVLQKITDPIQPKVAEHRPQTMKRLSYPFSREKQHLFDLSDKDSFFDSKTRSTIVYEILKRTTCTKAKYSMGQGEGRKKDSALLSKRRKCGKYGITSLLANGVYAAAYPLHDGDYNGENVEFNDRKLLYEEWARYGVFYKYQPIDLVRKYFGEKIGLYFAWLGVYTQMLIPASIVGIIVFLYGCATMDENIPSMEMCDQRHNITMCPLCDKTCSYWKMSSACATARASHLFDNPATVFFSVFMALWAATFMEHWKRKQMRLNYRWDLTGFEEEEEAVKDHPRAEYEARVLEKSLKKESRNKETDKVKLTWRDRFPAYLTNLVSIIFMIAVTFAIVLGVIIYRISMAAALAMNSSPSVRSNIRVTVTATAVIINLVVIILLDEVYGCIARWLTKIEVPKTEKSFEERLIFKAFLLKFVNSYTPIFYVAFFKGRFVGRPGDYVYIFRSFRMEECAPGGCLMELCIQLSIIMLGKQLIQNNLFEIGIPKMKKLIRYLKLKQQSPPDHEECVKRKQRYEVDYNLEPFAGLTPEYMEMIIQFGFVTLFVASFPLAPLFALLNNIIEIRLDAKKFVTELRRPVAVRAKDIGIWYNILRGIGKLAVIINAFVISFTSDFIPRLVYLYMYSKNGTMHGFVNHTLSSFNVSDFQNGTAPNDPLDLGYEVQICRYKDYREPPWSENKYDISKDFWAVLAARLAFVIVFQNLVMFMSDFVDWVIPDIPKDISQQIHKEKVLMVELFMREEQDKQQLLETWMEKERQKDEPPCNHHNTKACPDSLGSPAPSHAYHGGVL
Test: Apical membrane current in TMEM16A-expressing FRT cells
Type: cell-based
Procedure: FRT cells were stably transfected with human TMEM16A (TMEM16A(abc), cDNA provided by Dr. Luis Galietta, Gaslini Institute, Genoa, Italy) and the halide sensor YFP-H148Q/1152L/F46L. Cells were plated in 96-well black-walled microplates (Corning Inc., Corning, N.Y.) at a density of 20,000 cells per well in Coon's modified F12 medium supplemented with 5% fetal calf serum, 2 mM L-glutamine, 100 U/mL penicillin and 100 μg/mL streptomycin. The human submandibular cell line A253 (ATCC HTB 41) was cultured in complete McCoy's 5A medium supplemented with 10% fetal bovine serum, 100 U/mL penicillin and 100 μg/mL streptomycin.
Snapwell inserts containing TMEM16A-expressing FRT, HBE, CF HBE or HTG cells were mounted in Ussing chambers (Physiologic Instruments, San Diego, Calif.). Amiloride, CFTRinh-172, UTP, ATP, T16Ainh-A01 and TMEM16A activators were added to the apical solution and an equal volume of vehicle was added at the same time to the basolateral solution. Symmetrical HCO3^−-buffered solutions were used for HBE, CF HBE and HTG cells. For FRT cells, the hemichambers were filled with a half-Cl^− solution (apical) and the HCO3^−-buffered solution (basolateral), and the basolateral membrane was permeabilized with 250 μg/mL amphotericin B, as described (Namkung et al. (2010), supra). Cells were bathed for a 10 min stabilization period and aerated with 95% O2/5% CO2 at 37° C. or room temperature. Apical membrane current (for FRT cells) and short-circuit current were measured using an EVC4000 Multi-Channel V/I Clamp (World Precision Instruments, Sarasota, Fla.) and recorded using PowerLab/8sp (AD Instruments, Castle Hill, Australia).
The current increase was sustained for >10 min (FIG. 2B, inset). […] Data are also shown for a second Fact compound (Fact9, see Table 1) in FIG. 9.

Row | SMILES | inhibition of Eact- and Fact-induced Cl^− current (T16Ainh-A01 10 μM) | TMEM16A current following 1 μM Eact (synergy) (1-3 μM Fact after 1 μM Eact) | TMEM16A activation alone (1-3 μM Fact alone) | EC50 (EC50 from concentration-activation data, apical membrane current) | maximal TMEM16A activation compared to ATP effect (apical membrane current) | Cl^− current (apical membrane current) (basolateral membrane permeabilized, Cl^− gradient, ATP 100 μM)
1 | CCc1c(C)nc(SCC(=O)Nc2nc(-c3ccc(OC)cc3)cs2)[nH]c1=O [T16Ainh-A01, reference compound] | inhibited |  |  |  |  | 
2 | O=C(Nc1ccc(Br)cc1)c1cccc(-n2cnnn2)c1 [Fact, N-(4-bromophenyl)-3-(1H-tetrazol-1-yl)benzamide] |  | greatly increased TMEM16A current | little TMEM16A activation | 3 to 6 µM and ~6 µM | maximal TMEM16A activation | large, concentration-dependent increases in Cl^− current
